Data reported in US4616008A, “Antibacterial solid composition for oral administration” (Takeda Chemical Industries, Ltd., priority 1984, dated 1986).
Where a name gives a salt, the structure may show the parent alone.

Test: Test Example 3: Determination of oil/water partition coefficient (n-octanol / Sorensen buffer pH 7.0, HPLC)
Assay type: physicochemical
Conditions: dihydrochloride
Method: A 10-ml portion, of a solution prepared by dissolving the dihydrochloride of Compound No. 1 in Sorensen buffer solution (pH 7.0) to a concentration of 100 μg/ml is placed in a 50-ml centrifuagl tube, followed by addition of 10 ml of n-octanol. After shaking at 25° C. for 10 minutes, the mixture is centrifuged and the concentration of the cephalosporin compound in the aqueous layer is determined by high performance liquid chromatography [column: μ-Bondapak C-18 produced by Waters Associates, Canada; eluent: 0.05 M ammonium sulfate solution+acetonitrile+acetic acid (400:200:1 v/v)]. A value of 0.45 μg/ml is obtained. From this value, the oil/water partition coefficient is calculated as follows: [formula]

**Q.** For `CC(OC(=O)OC1CCCCC1)OC(=O)C1=C(CSc2nnnn2CCN(C)C)CS[C@@H]2[C@H](NC(=O)Cc3csc(N)n3)C(=O)N12` (stereo partly drawn) [Compound No. 1, 1-(cyclohexyloxycarbonyloxy)ethyl 7β-[2-(2-aminothiazol-4-yl)acetamido]-3-[[[1-(2-dimethylaminoethyl-1H-tetrazol-5-yl]thio]methyl]ceph-3-em-4-carboxylatedihydrochloride], which “concentration of the cephalosporin compound in the aqueous layer” value (initial 100 μg/ml in Sorensen buffer pH 7.0, equal volume n-octanol, 25° C., 10 minutes shaking) is on record?
**A.** 450 ng/mL

**Q.** What about the logD (n-octanol/Sorensen buffer pH 7.0, 25° C., calculated from aqueous concentration) of the same compound?
**A.** 2.34
